One block for each compound: values may come before it. Activity calls are given as the source filed them. The rule behind the calls is not given here.
Assays:
HCC827 [1] = assay: Antiproliferative activity against human HCC827 cells assessed as inhibition of cell growth measured after 72 hrs by MTT assay; assay type: functional, cell-based; conditions: HCC827, 72 h
NCI-H1975 = assay: Antiproliferative activity against human NCI-H1975 cells assessed as inhibition of cell growth measured after 72 hrs by MTT assay; assay type: functional, cell-based; conditions: NCI-H1975, 72 h
A549 = assay: Antiproliferative activity against human A549 cells assessed as inhibition of cell growth measured after 72 hrs by MTT assay; assay type: functional, cell-based; conditions: A549, 72 h
[2] = tested on: Epidermal growth factor receptor (Homo sapiens), P00533 [UNDEFINED MUTATION]; conditions: dose 100.0 nM
[3] = tested on: Epidermal growth factor receptor (Homo sapiens), P00533 [UNDEFINED MUTATION]; conditions: dose 30.0 nM
[4] = molecular target: T1, Epidermal growth factor receptor (Homo sapiens, UniProt P00533); assay: Inhibition of wild type EGFR (unknown origin) preincubated for 10 mins followed by substrate addition and measured after 50 mins in presence of ATP by HTRF assay
[5] = molecular target: Epidermal growth factor receptor (Homo sapiens, UniProt P00533, EX19DEL/T790M); assay: Inhibition of EGFR Del19/T790M (unknown origin) preincubated for 10 mins followed by substrate addition and measured after 50 mins in presence of ATP by HTRF assay
[6] = molecular target: Epidermal growth factor receptor (Homo sapiens, UniProt P00533, L858R/T790M); assay: Inhibition of EGFR L858R/T790M (unknown origin) preincubated for 10 mins followed by substrate addition and measured after 50 mins in presence of ATP by HTRF assay
[7] = molecular target: Epidermal growth factor receptor (Homo sapiens, UniProt P00533, C797S/EX19DEL/T790M); assay: Inhibition of EGFR Del19/T790M/C797S triple mutant (unknown origin) preincubated for 10 mins followed by substrate addition and measured after 50 mins in presence of ATP by HTRF assay
[8] = molecular target: Epidermal growth factor receptor (Homo sapiens, UniProt P00533, C797S/L858R/T790M); assay: Inhibition of EGFR L858R/T790M/C797S triple mutant (unknown origin) preincubated for 10 mins followed by substrate addition and measured after 50 mins in presence of ATP by HTRF assay
[9] = molecular target: T1, Epidermal growth factor receptor; assay: Inhibition of wild type EGFR (unknown origin) at 100 nM preincubated for 10 mins followed by substrate addition and measured after 50 mins in presence of ATP by HTRF assay relative to control; conditions: time 60.0 min
[10] = molecular target: Tyrosine-protein kinase ABL1 (Homo sapiens) (UniProt P00519); assay: Inhibition of Abl (unknown origin) by HTRF assay relative to control; conditions: concentration not given here
Homo sapiens [11] = species on record: Homo sapiens; assay: Inhibition of Akt (unknown origin) by HTRF assay relative to control; conditions: concentration not given here
[12] = molecular target: Tyrosine-protein kinase BTK (Homo sapiens) (UniProt Q06187); assay: Inhibition of BTK (unknown origin) by HTRF assay relative to control; conditions: concentration not given here
[13] = molecular target: Mast/stem cell growth factor receptor Kit (Homo sapiens) (UniProt P10721); assay: Inhibition of c-kit (unknown origin) by HTRF assay relative to control; conditions: concentration not given here
Homo sapiens [14] = species on record: Homo sapiens; assay: Inhibition of FGFR (unknown origin) by HTRF assay relative to control; conditions: concentration not given here
[15] = molecular target: Insulin-like growth factor 1 receptor (Homo sapiens) (UniProt P08069); assay: Inhibition of IGF-1R (unknown origin) by HTRF assay relative to control; conditions: concentration not given here
[16] = molecular target: Dual specificity mitogen-activated protein kinase kinase; MEK1/2 (Homo sapiens) (UniProt P36507+Q02750); assay: Inhibition of MEK1/2 (unknown origin) by HTRF assay relative to control; assay type: protein assay; conditions: concentration not given here
[17] = molecular target: Serine/threonine-protein kinase mTOR (Homo sapiens) (UniProt P42345); assay: Inhibition of mTOR (unknown origin) by HTRF assay relative to control; conditions: concentration not given here
[18] = molecular target: Platelet-derived growth factor receptor alpha (Homo sapiens) (UniProt P16234); assay: Inhibition of PDGFR alpha (unknown origin) by HTRF assay relative to control; conditions: concentration not given here
[19] = molecular target: RAF proto-oncogene serine/threonine-protein kinase (Homo sapiens) (UniProt P04049); assay: Inhibition of c-RAF (unknown origin) by HTRF assay relative to control; conditions: concentration not given here
[20] = molecular target: Proto-oncogene tyrosine-protein kinase ROS (Homo sapiens) (UniProt P08922); assay: Inhibition of ROS (unknown origin) by HTRF assay relative to control; conditions: concentration not given here
[21] = molecular target: Proto-oncogene tyrosine-protein kinase Src (Homo sapiens) (UniProt P12931); assay: Inhibition of Src (unknown origin) by HTRF assay relative to control; conditions: concentration not given here
Homo sapiens [22] = species on record: Homo sapiens; assay: Inhibition of VGFR (unknown origin) by HTRF assay relative to control; conditions: concentration not given here
[23] = Cytotoxicity against human 2BS cells assessed as inhibition of cell viability measured after 72 hrs by MTT assay; assay type: toxicity, cell-based
[24] = Cytotoxicity against human L02 cells assessed as inhibition of cell viability measured after 72 hrs by MTT assay; assay type: toxicity, cell-based
HCC827 [25] = assay: Inhibition of colony formation in human HCC827 cells at 10 to 100 nM measured after 14 days by crystal violet staining based analysis; assay type: functional, cell-based; conditions: dose 10-100 nM, time 14.0 day
HCC827 [26] = assay: Induction of cell cycle arrest in human HCC827 cells assessed as accumulation of cells at G0/G1 phase at 10 nM measured after 24 hrs by PI staining based flow cytometry analysis (reference value: 54.36%); assay type: functional
HCC827 [27] = assay: Induction of cell cycle arrest in human HCC827 cells assessed as accumulation of cells at G0/G1 phase at 30 nM measured after 24 hrs by PI staining based flow cytometry analysis (reference value: 54.36%); assay type: functional
HCC827 [28] = assay: Induction of cell cycle arrest in human HCC827 cells assessed as accumulation of cells at G0/G1 phase at 100 nM measured after 24 hrs by PI staining based flow cytometry analysis (reference value: 54.36%); assay type: functional
HCC827 [29] = assay: Induction of cell cycle arrest in human HCC827 cells assessed as accumulation of cells at S phase at 10 nM measured after 24 hrs by PI staining based flow cytometry analysis (reference value: 28.81%); assay type: functional
HCC827 [30] = assay: Induction of cell cycle arrest in human HCC827 cells assessed as accumulation of cells at S phase at 30 nM measured after 24 hrs by PI staining based flow cytometry analysis (reference value: 28.81%); assay type: functional
HCC827 [31] = assay: Induction of cell cycle arrest in human HCC827 cells assessed as accumulation of cells at S phase at 100 nM measured after 24 hrs by PI staining based flow cytometry analysis (reference value: 28.81%); assay type: functional
HCC827 [32] = assay: Induction of cell cycle arrest in human HCC827 cells assessed as accumulation of cells at G2/M phase at 10 nM measured after 24 hrs by PI staining based flow cytometry analysis (reference value: 16.83%); assay type: functional
HCC827 [33] = assay: Induction of cell cycle arrest in human HCC827 cells assessed as accumulation of cells at G2/M phase at 30 nM measured after 24 hrs by PI staining based flow cytometry analysis (reference value: 16.83%); assay type: functional
HCC827 [34] = assay: Induction of cell cycle arrest in human HCC827 cells assessed as accumulation of cells at G2/M phase at 100 nM measured after 24 hrs by PI staining based flow cytometry analysis (reference value: 16.83%); assay type: functional
[35] = Inhibition of ERK (unknown origin) by HTRF assay relative to control; conditions: Homo sapiens; concentration not given here

Chain of Epidermal growth factor receptor (Homo sapiens), P00533 [UNDEFINED MUTATION] (P00533 whole entry, looked up, stated change not applied): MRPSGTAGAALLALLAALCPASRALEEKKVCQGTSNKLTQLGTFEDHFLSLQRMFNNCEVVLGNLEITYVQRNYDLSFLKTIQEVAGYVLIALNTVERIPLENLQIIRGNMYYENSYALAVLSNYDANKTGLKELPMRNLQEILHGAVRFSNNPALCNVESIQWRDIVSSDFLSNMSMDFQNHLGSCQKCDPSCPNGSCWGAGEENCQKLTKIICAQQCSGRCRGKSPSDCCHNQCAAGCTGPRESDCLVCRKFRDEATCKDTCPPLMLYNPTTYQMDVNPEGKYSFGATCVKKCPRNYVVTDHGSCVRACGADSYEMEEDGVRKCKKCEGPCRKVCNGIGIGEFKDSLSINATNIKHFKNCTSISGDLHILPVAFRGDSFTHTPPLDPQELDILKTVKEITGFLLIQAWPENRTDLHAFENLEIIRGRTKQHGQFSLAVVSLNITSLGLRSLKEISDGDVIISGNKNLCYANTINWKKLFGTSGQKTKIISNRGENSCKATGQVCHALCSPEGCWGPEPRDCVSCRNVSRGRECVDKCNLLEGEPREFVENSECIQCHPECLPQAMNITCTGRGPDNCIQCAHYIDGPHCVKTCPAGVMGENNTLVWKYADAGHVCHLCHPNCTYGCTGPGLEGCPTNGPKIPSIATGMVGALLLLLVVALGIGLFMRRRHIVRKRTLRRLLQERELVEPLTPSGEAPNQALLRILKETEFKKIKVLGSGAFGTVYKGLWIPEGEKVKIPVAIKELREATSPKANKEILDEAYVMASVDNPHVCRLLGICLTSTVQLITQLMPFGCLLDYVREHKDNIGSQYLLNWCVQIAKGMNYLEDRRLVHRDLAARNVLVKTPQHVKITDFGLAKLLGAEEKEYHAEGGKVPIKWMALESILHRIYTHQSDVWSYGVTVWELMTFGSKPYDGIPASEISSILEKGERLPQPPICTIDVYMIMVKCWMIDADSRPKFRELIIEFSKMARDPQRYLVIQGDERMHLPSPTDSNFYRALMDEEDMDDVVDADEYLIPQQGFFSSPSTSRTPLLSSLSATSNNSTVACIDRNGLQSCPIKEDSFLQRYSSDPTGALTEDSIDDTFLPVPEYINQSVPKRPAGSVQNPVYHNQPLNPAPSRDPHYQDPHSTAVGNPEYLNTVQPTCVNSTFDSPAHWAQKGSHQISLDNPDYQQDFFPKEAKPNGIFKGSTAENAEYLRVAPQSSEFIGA
T1 sequence (P00533 whole entry): as the sequence (P00533 whole entry, looked up, stated change not applied) above
Chain of Proto-oncogene tyrosine-protein kinase ROS (Homo sapiens) (P08922 whole entry): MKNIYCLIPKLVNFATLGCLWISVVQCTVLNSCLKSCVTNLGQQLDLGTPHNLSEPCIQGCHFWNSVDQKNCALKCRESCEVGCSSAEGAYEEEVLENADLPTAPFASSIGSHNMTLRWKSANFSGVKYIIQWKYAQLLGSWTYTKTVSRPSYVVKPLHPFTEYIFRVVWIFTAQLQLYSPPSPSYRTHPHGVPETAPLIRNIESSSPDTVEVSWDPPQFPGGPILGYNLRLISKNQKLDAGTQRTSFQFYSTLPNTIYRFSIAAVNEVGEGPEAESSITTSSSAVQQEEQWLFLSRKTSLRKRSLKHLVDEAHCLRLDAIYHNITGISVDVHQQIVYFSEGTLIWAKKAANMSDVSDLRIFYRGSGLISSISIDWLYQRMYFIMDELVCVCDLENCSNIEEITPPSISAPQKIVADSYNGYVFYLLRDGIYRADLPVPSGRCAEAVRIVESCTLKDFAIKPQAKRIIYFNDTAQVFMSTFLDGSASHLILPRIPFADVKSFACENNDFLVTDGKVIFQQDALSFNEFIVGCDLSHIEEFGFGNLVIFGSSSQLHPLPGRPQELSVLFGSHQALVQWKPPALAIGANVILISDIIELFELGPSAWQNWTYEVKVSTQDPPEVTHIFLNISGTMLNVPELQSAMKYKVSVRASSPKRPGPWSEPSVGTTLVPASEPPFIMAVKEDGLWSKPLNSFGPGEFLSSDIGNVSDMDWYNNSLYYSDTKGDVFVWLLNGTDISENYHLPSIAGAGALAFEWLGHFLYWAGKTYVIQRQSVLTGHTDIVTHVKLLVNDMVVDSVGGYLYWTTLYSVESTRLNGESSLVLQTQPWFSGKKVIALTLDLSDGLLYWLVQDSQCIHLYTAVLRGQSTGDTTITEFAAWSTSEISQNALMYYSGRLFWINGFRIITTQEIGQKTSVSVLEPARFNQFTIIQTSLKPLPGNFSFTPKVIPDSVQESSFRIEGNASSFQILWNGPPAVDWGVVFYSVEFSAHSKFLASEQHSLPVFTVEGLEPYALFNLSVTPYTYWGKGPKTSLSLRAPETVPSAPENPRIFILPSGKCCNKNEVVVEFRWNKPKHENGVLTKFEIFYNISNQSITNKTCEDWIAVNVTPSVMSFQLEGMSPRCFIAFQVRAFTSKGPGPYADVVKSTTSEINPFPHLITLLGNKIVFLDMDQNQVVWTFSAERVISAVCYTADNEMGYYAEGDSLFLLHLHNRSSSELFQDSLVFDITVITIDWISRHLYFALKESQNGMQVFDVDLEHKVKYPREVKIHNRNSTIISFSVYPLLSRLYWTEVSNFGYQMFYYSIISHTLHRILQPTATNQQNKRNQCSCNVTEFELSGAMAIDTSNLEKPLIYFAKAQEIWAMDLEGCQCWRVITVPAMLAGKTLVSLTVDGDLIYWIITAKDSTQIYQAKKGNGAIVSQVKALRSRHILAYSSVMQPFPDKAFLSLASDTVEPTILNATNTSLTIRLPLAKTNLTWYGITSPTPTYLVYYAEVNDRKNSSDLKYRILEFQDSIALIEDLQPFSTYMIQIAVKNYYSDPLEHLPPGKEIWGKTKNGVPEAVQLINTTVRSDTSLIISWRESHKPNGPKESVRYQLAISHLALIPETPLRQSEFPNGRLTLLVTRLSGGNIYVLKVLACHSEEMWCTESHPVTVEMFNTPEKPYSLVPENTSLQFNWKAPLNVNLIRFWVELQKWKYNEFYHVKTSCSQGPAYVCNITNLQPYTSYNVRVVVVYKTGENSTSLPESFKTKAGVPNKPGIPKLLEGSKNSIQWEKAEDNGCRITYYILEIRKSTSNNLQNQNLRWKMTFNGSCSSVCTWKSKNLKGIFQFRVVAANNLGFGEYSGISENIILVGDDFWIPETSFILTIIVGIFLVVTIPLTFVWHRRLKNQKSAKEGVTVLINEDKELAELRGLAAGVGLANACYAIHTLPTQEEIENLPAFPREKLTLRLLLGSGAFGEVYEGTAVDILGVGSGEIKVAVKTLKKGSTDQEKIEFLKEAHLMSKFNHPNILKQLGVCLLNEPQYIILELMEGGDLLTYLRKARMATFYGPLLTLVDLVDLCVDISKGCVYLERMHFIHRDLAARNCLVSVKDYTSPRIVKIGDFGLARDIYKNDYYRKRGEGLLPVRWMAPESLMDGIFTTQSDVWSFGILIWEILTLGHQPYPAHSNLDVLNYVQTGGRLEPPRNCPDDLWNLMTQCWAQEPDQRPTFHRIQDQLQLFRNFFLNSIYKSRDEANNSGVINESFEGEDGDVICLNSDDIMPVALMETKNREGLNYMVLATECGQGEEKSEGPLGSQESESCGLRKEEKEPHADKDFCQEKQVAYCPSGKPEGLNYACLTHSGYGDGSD

- IC50 (HCC827 [1]): 37 nM
- IC50 (NCI-H1975): 276 nM
- IC50 (A549): 650 nM
- inhibition [2]: 65.5%
- inhibition [3]: 32.8%
Structure (SMILES): O=C(NO)c1ccsc1Nc1nc(Nc2ccc(CCN3CCOCC3)cc2)ncc1Br

- IC50 (HCC827 [1]): 346 nM
- IC50 (NCI-H1975): 247 nM
- IC50 (A549): 718 nM
- inhibition [2]: 51.3%
- inhibition [3]: 19.7%
Structure (SMILES): O=C(NO)c1ccsc1Nc1nc(Nc2ccc(OCCN3CCOCC3)cc2)ncc1Br

- IC50 (HCC827 [1]): 31 nM
- IC50 (NCI-H1975): 135 nM
- IC50 (A549): 230 nM
- IC50 [4]: 34.4 nM
- IC50 [5]: 897 nM
- IC50 [6]: 72.3 nM
- IC50 [7]: 37.9 nM
- IC50 [8]: 26.7 nM
- inhibition [9]: 83.6%
- inhibition [10]: < 70%
- inhibition (Homo sapiens [11]): < 70%
- inhibition [12]: < 70%
- inhibition [13]: < 70%
- inhibition (Homo sapiens [14]): < 70%
- inhibition [15]: < 70%
- inhibition [16]: < 70%
- inhibition [17]: < 70%
- inhibition [18]: < 70%
- inhibition [19]: < 70%
- inhibition [20]: < 70%
- inhibition [21]: < 70%
- inhibition (Homo sapiens [22]): < 70%
- inhibition [2]: 73.3%
- inhibition [3]: 47.8%
- inhibition [35]: < 70%
Structure (SMILES): O=C(NO)c1ccsc1Nc1nc(Nc2ccc(N3CCOCC3)cc2)ncc1Cl
- IC50 at 72 h [23]: 15200 nM
- IC50 at 72 h [24]: 5030 nM
- inhibition (HCC827 [25]): Active
- Activity (HCC827 [26]): 64.32%
- Activity (HCC827 [27]): 65.79%
- Activity (HCC827 [28]): 59.28%
- Activity (HCC827 [29]): 20.21%
- Activity (HCC827 [30]): 14.08%
- Activity (HCC827 [31]): 15.6%
- Activity (HCC827 [32]): 15.47%
- Activity (HCC827 [33]): 20.13%
- Activity (HCC827 [34]): 25.12%

- IC50 (HCC827 [1]): 45 nM
- IC50 (NCI-H1975): 162 nM
- IC50 (A549): 388 nM
- inhibition [2]: 64.9%
- inhibition [3]: 36.7%
Structure (SMILES): O=C(NO)c1ccsc1Nc1nc(Nc2ccc(CCN3CCOCC3)cc2)ncc1Cl

- IC50 (HCC827 [1]): 230 nM
- IC50 (NCI-H1975): 347 nM
- IC50 (A549): 114 nM
- inhibition [2]: 57.2%
- inhibition [3]: 21.9%
Structure (SMILES): Cc1cnc(Nc2ccc(N3CCOCC3)cc2)nc1Nc1sccc1C(=O)NO

Continued, compound first:

Structure (SMILES): Cc1cnc(Nc2ccc(N3CCOCC3)cc2)nc1Nc1ccsc1C(=O)NO
- IC50 (HCC827 [1]): 55 nM
- IC50 (NCI-H1975): 474 nM
- IC50 (A549): 169 nM
- inhibition [2]: 71.2%
- inhibition [3]: 42.1%

Structure (SMILES): O=C(NO)c1ccsc1Nc1nc(Nc2cccc(N3CCOCC3)c2)ncc1Cl
- IC50 (HCC827 [1]): 462 nM
- IC50 (NCI-H1975): 788 nM
- IC50 (A549): 828 nM
- inhibition [2]: 66.8%
- inhibition [3]: 23.9%

Structure (SMILES): COc1cc(Nc2ncc(Cl)c(Nc3sccc3C(=O)NO)n2)cc(OC)c1OC
- IC50 (HCC827 [1]): 69 nM
- IC50 (NCI-H1975): 583 nM
- IC50 (A549): 521 nM
- inhibition [2]: 59.9%
- inhibition [3]: 23.1%

Structure (SMILES): O=C(NO)c1sccc1Nc1nc(Nc2ccc(N3CCOCC3)cc2)ncc1Br
- IC50 (HCC827 [1]): 32 nM
- IC50 (NCI-H1975): 1130 nM
- IC50 (A549): 201 nM
- inhibition [2]: 67.2%
- inhibition [3]: 44.9%

Structure (SMILES): O=C(NO)c1ccsc1Nc1nc(Nc2ccc(N3CCOCC3)cc2)ncc1C(F)(F)F
- IC50 (HCC827 [1]): 1700 nM
- IC50 (NCI-H1975): 1670 nM
- IC50 (A549): 18600 nM
- inhibition [2]: 32.7%
- inhibition [3]: 18.2%

Structure (SMILES): O=C(NO)c1sc2ccccc2c1Nc1nc(Nc2ccc(N3CCOCC3)cc2)ncc1Br
- IC50 (HCC827 [1]): 4340 nM
- IC50 (NCI-H1975): 2400 nM
- IC50 (A549): 4850 nM
- inhibition [2]: 4.79%
- inhibition [3]: 0.17%
